Laboratory results: patent US10975068B2, “6-aminopyridin-3-yl thiazoles as modulators of RORγT” (Janssen Pharmaceutica NV, priority 2016, dated 2021)
pIC50, pKd: −log10 of the molar value. Like-named read-outs stand apart in the source and are kept apart here.

Assays:
[1] = molecular target: human RORγt ligand binding domain (RORγt LBD) (Homo sapiens (Human), UniProt P51449); assay: RORγt ThermoFluor® assay (thermal shift binding); details: read-out: ThermoFluor® Assay, Kd
Summary of the method: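 His-tagged human RORγt LBD (0.065 mg/mL) with 60 μM 1,8-ANS in 100 mM Hepes pH 7.0, 10 mM NaCl, 2.5 mM GSH, 0.002% Tween-20 was heated at 1 °C/min.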

full-length human RORγt = full-length human RORγt (Homo sapiens (Human), UniProt P51449); assay: RORγt (full-length human) reporter assay, Conditions B or C; assay type: cell-based; details: for inhibition at 1 µM: at 1 μM compound concentration; for inhibition at 1 µM / inhibition at 3 µM: read-out: RORγt (FL) Reporter Assay B or C, % inhibition; for inhibition at 3 µM: at 3 μM compound concentration
Sequence of full-length human RORγt (P51449 other isoform, or with tags, fused parts or gaps): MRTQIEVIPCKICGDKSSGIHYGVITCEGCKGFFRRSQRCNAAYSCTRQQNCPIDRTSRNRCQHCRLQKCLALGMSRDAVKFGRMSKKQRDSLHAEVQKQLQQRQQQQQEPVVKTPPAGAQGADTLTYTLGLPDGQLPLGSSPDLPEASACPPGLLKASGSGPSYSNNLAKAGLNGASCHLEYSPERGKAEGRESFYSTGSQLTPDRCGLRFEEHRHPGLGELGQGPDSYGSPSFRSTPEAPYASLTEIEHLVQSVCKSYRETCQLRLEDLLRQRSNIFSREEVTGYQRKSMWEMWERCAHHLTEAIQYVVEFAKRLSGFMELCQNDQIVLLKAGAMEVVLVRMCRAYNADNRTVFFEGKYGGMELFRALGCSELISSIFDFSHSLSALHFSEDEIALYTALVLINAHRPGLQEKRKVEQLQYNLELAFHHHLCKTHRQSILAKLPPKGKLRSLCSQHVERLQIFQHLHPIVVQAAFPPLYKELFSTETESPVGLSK
Summary of the method: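 HEK293T cells transiently co-transfected with GAL4-DBD–full-length human RORγt (nt 142-1635, NM_001001523.1) plus GAL4-firefly and CMV-Renilla luciferase reporters; compounds added 4-6 h post-transfection for 16-20 h in 1.3% FBS, 0.1% DMSO. Firefly signal normalized to DMSO and saturating reference compound, then to Renilla; IC50 from concentration plots.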

[2] = read-out: RORγt (FL) Reporter Assay B or C, IC50
[3] = RORγt (FL) Reporter Assay B or C, IC50

Sequence of human RORγt ligand binding domain (RORγt LBD) (P51449 other isoform, or with tags, fused parts or gaps): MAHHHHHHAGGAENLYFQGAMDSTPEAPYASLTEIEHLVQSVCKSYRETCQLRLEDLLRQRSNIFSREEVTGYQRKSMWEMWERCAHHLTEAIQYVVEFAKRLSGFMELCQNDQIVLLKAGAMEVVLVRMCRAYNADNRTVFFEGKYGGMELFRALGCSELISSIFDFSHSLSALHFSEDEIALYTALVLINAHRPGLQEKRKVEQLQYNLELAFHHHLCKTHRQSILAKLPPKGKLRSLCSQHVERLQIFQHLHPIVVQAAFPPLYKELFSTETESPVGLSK

Row | Structure (SMILES) | pKd [1] | inhibition at 1 µM (full-length human RORγt) [%] | pIC50 (full-length human RORγt; [2]) | inhibition at 3 µM (full-length human RORγt) [%] | pIC50 (full-length human RORγt; [3])
1 | C[C@@H](NC(=O)c1nc(C(=O)N2C3CCC2CC3)c(-c2cnc(N[C@@H](C3CC3)C(F)(F)F)cc2C(F)F)s1)C(C)(C)O [Example 316, 4-((1s,4s)-7-Azabicyclo[2.2.1]heptane-7-carbonyl)-5-(6-(((S)-1-cyclopropyl-2,2,2-trifluoroethyl)amino)-4-(difluoromethyl)pyridin-3-yl)-N—((R)-3-hydroxy-3-methylbutan-2-yl)thiazole-2-carboxamide] | 8.54 | – | – | 108 | 7.49
2 | C[C@H](NC(=O)c1nc(C(=O)N2C3CCC2CC3)c(-c2cnc(N[C@@H](C3CC3)C(F)(F)F)cc2C(F)F)s1)C(C)(C)O [Example 317, 4-((1s,4s)-7-Azabicyclo[2.2.1]heptane-7-carbonyl)-5-(6-(((S)-1-cyclopropyl-2,2,2-trifluoroethyl)amino)-4-(difluoromethyl)pyridin-3-yl)-N—((S)-3-hydroxy-3-methylbutan-2-yl)thiazole-2-carboxamide] | 8.62 | – | – | 106 | 7.85
3 | C[C@H]1CCCN1C(=O)c1nc(C(=O)N[C@H]2C[C@H](O)C2)sc1-c1cnc(N[C@H](C)C(F)(F)F)cc1C(F)F [Example 319, 5-(4-(Difluoromethyl)-6-(((R)-1,1,1-trifluoropropan-2-yl)amino)pyridin-3-yl)-N-((1r,3S)-3-hydroxycyclobutyl)-4-((S)-2-methylpyrrolidine-1-carbonyl)thiazole-2-carboxamide] | 7.54 | – | 7.10 | 91 | –

Continued, in another order:

Row | pKd [1] | inhibition at 1 µM (full-length human RORγt) [%] | pIC50 (full-length human RORγt; [2]) | inhibition at 3 µM (full-length human RORγt) [%] | Structure (SMILES) | pIC50 (full-length human RORγt; [3])
4 | 8.54 | 99 | 7.82 | – | C[C@H]1CC(F)(F)CN1C(=O)c1nc(C(=O)N[C@H]2C[C@H](O)C2)sc1-c1cnc(N[C@@H](C2CC2)C(F)(F)F)cc1C(F)F [Example 315, 5-(6-(((S)-1-Cyclopropyl-2,2,2-trifluoroethyl)amino)-4-(difluoromethyl)pyridin-3-yl)-4-((S)-4,4-difluoro-2-methylpyrrolidine-1-carbonyl)-N-((1r,3S)-3-hydroxycyclobutyl)thiazole-2-carboxamide] | –
5 | 8.42 | – | 7.34 | 98 | C[C@H]1CCCN1C(=O)c1nc(C(=O)N[C@H]2C[C@H](O)C2)sc1-c1cnc(N[C@H](C2CC2)C(F)(F)F)cc1C(F)F [Example 320, 5-(6-(((R)-1-Cyclopropyl-2,2,2-trifluoroethyl)amino)-4-(difluoromethyl)pyridin-3-yl)-N-((1r,3S)-3-hydroxycyclobutyl)-4-((S)-2-methylpyrrolidine-1-carbonyl)thiazole-2-carboxamide] | –
6 | 8.28 | – | 7.00 | 87 | C[C@H]1CCCN1C(=O)c1nc(C(=O)N[C@H](C)C(C)(C)O)sc1-c1cnc(NC2(C)CCC2)cc1C(F)F [Example 321, 5-(4-(Difluoromethyl)-6-((1-methylcyclobutyl)amino)pyridin-3-yl)-N—((R)-3-hydroxy-3-methylbutan-2-yl)-4-((S)-2-methylpyrrolidine-1-carbonyl)thiazole-2-carboxamide] | –
7 | 8.74 | – | 7.31 | 106 | C[C@H](NC(=O)c1nc(C(=O)N2CCC[C@@H]2C)c(-c2cnc(NC3(C)CCC3)cc2C(F)F)s1)C(C)(C)O [Example 322, 5-(4-(Difluoromethyl)-6-((1-methylcyclobutyl)amino)pyridin-3-yl)-N—((S)-3-hydroxy-3-methylbutan-2-yl)-4-((S)-2-methylpyrrolidine-1-carbonyl)thiazole-2-carboxamide] | –
8 | 8.09 | 97 | 6.82 | – | C[C@H]1CCCN1C(=O)c1nc(C(=O)N[C@H]2C[C@H](O)C2)sc1-c1cnc(NC2(C)CCC2)cc1C(F)F [Example 323, 5-(4-(Difluoromethyl)-6-((1-methylcyclobutyl)amino)pyridin-3-yl)-N-((1r,3S)-3-hydroxycyclobutyl)-4-((S)-2-methylpyrrolidine-1-carbonyl)thiazole-2-carboxamide] | –
